{"source": "patent US4232013A", "about": "“16,17-Pyrazolino- and 16,17-isopyrazolino-1,4-pregnadiene derivatives” (Lark S.p.A., priority 1977, dated 1980)", "key": {"granuloma formation": {"system": "granuloma formation", "assay": "cotton granuloma assay, topical anti-inflammatory activity", "format": "in vivo, rat (adult female albino, Sprague-Dawley)", "set-up": "key: relative potency; comparison steroid = 1", "conditions": "20-2-0.2 mcg/cotton pellet, 7 days; for Anti-inflammatory activity (*): (*) in comparison with Fluocinolone acetonide; for Anti-inflammatory activity (**): (**) in comparison with Dexamethasone 21-acetate", "description": "(§1) The topical anti-inflammatory activity of the new compounds of this invention was determined using the cotton granuloma assay. This test was performed according to C. A. Winter and C. C. Porter J. Am. Pharm. Ass. Sci., Ed. 46, 515. 1957 using adult female albino rats (Sprague-Dawley) average body weight 150 grams. 8 animals per group.\n(§2) The method consists in the subcutaneous implantation in the dorsal region of 2 sterile cotton pelletts. The pellets employed were 5 mm section cut from dental cotton rolls weighing about 45 mg each. The tested compound dissolved in ethyl alcohol, was absorbed on the pellets before implantation. Fluocinolone acetonide and Dexamethasone-21-acetate was used as comparison products and their activities were conventionally taken equal to 1 for each of the various parameters herein considered. Comparison substance and tested new compounds were absorbed on the pellets at the following scalar dosage per each pellet: 20-2-0.2 mcg/cotton pellet. For the controls the pellets were soakened in the pure solvent (ethyl alcohol) and then dried as usually.\nAfter seven days the animals were sacrified. The pellets were removed and the exudate weights were recorded as a measure of the granuloma formation. The degree of granuloma inhibition reflects the anti-inflammatory activity of the tested compounds.\n(§3) In the following Table 1. there are reported the achieved results with regard to the anti-inflammatory activity, the thymolitic activity, and the LD50 values: […]"}, "[1]": {"assay": "thymolytic activity (topical administration)", "format": "in vivo, rat (adult female albino, Sprague-Dawley)", "description": "as §1, §2, §3"}, "LD50 (acute toxicity)": {"assay": "LD50 (acute toxicity)", "conditions": "in vivo, topical or ocular; Table 1, topical administration", "text": "as §3"}, "[2]": {"system": "vasoconstrictive activity, human volunteers", "assay": "vasoconstrictive activity in human volunteers (McKenzie and Stoughton's test or Falconi and Rossi's Paper-Patch Test)", "format": "in vivo", "conditions": "for vasoconstrictive activity (in words): human volunteers", "text": "Some of the esters have been tested in human volunteers for their vasoconstrictive activity using the McKenzie and Stoughton's test (1) or the Falconi and Rossi's Paper-Patch Test (2) in comparison with a known anti-inflammatory corticosteroid, namely fluocinolone acetonide.\nIn the first experiment 2 dilutions of 4 esters have been tested on volunteers and 10 dilutions have been applied for each subject.\n1. Mc Kenzie, A.W., Stoughton, R.B.: Method for comparing percutaneous\nabsorption of Steroids. Arch. Derm. 86, 608, 1962.\nvasoconstrictive activity of Corticosteroids. Arch. Derm. 105, 856, 1972."}, "[3]": {"conditions": "topical, relative, comparison product conventionally equal to 1 (Dexamethasone 21-acetate = 1)"}, "[4]": {"conditions": "Table 2, first trial, dilution 10^4"}, "[5]": {"conditions": "Table 2, first trial, dilution 10^5"}, "[6]": {"conditions": "Table 2a, second trial, dilution 10^3"}, "[7]": {"conditions": "Table 2a, second trial, dilution 10^4"}, "[8]": {"conditions": "Table 2a, second trial, dilution 10^5"}, "[9]": {"conditions": "Table 2a, second trial, dilution 10^6"}}, "data": [{"smiles": "CC(=O)OCC(=O)[C@@]12NN=C[C@@H]1C[C@H]1[C@@H]3C[C@H](F)C4=CC(=O)C=C[C@]4(C)[C@@]3(F)[C@@H](O)C[C@@]12C", "note": "[16,17 M Dif-AC, 16α,17α-Isopyrazolino-1,4-pregnadiene-6α,9α-difluoro-11β,21-diol-3,20-dione 21-acetate]", "values": [{"measurement": "Anti-inflammatory activity (*)", "setting": "granuloma formation", "result": "> 10"}, {"measurement": "Anti-inflammatory activity (**)", "setting": "granuloma formation", "result": "> 20"}, {"measurement": "Thymolytic activity", "setting": "[1]; [3]", "result": 0.26}, {"measurement": "LD50", "setting": "LD50 (acute toxicity)", "result": 1120, "unit": "mg/kg"}]}, {"smiles": "CC(=O)OCC(=O)[C@@]12NN=C[C@@H]1C[C@H]1[C@@H]3CCC4=CC(=O)C=C[C@]4(C)[C@@]3(F)[C@@H](O)C[C@@]12C", "note": "[16-17 MF-AC, 16α,17α-Isopyrazolino-1,4-pregnadiene-9α-fluoro-11β,21-diol-3,20-dione-21-acetate]", "values": [{"measurement": "Anti-inflammatory activity (*)", "setting": "granuloma formation", "result": "> 10"}, {"measurement": "Anti-inflammatory activity (**)", "setting": "granuloma formation", "result": "> 20"}, {"measurement": "Thymolytic activity", "setting": "[1]; [3]", "result": 0.02}, {"measurement": "LD50", "setting": "LD50 (acute toxicity)", "result": "> 2000", "unit": "mg/kg"}]}, {"smiles": "CC(C)(C)C(=O)OCC(=O)[C@@]12NN=C[C@@H]1C[C@H]1[C@@H]3C[C@H](F)C4=CC(=O)C=C[C@]4(C)[C@@]3(F)[C@@H](O)C[C@@]12C", "note": "[16-17-M-Dif-Piv, 16α,17α-Isopyrazolino-1,4-pregnadiene-6α,9α-difluoro-11β,21-diol-3,20-dione-21-pivalate]", "values": [{"measurement": "% Positive", "setting": "[2]; [4]", "result": 20, "unit": "%"}, {"measurement": "Results (Positive/No. of subjects)", "setting": "[2]; [4]", "result": "1/5"}, {"measurement": "% Positive", "setting": "[2]; [5]", "result": 0, "unit": "%"}, {"measurement": "Results (Positive/No. of subjects)", "setting": "[2]; [5]", "result": "0/5"}]}, {"smiles": "CCCCC(=O)OCC(=O)[C@@]12NN=C[C@@H]1C[C@H]1[C@@H]3C[C@H](F)C4=CC(=O)C=C[C@]4(C)[C@@]3(F)[C@@H](O)C[C@@]12C", "note": "[16-17-M-Dif-Va, 16α,17α-Isopyrazolino-1,4-pregnadiene-6α,9α-difluoro-11β,21-diol-3,20-dione-21-valerate]", "values": [{"measurement": "% Positive", "setting": "[2]; [4]", "result": 100, "unit": "%"}, {"measurement": "Results (Positive/No. of subjects)", "setting": "[2]; [4]", "result": "5/5"}, {"measurement": "% Positive", "setting": "[2]; [5]", "result": 40, "unit": "%"}, {"measurement": "Results (Positive/No. of subjects)", "setting": "[2]; [5]", "result": "2/5"}, {"measurement": "% Positive", "setting": "[2]; [6]", "result": 100, "unit": "%"}, {"measurement": "Results (Positive/No. of subjects)", "setting": "[2]; [6]", "result": "5/5"}, {"measurement": "% Positive", "setting": "[2]; [7]", "result": 80, "unit": "%"}, {"measurement": "Results (Positive/No. of subjects)", "setting": "[2]; [7]", "result": "4/5"}, {"measurement": "% Positive", "setting": "[2]; [8]", "result": 80, "unit": "%"}, {"measurement": "Results (Positive/No. of subjects)", "setting": "[2]; [8]", "result": "4/5"}, {"measurement": "% Positive", "setting": "[2]; [9]", "result": 60, "unit": "%"}, {"measurement": "Results (Positive/No. of subjects)", "setting": "[2]; [9]", "result": "3/5"}, {"measurement": "vasoconstrictive activity (in words)", "setting": "[2]", "result": "showed the best activity in the first trial"}, {"measurement": "vasoconstrictive activity (in words)", "setting": "[2]; listed as 16-17-Dif-Va", "result": "showed the same potency as fluocinolone acetonide even at the lower concentrations employed in the trials"}]}, {"smiles": "CC(=O)OCC(=O)[C@@]1(O)[C@H](C)C[C@H]2[C@@H]3CCC4=CC(=O)C=C[C@]4(C)[C@@]3(F)[C@@H](O)C[C@@]21C", "note": "[Dexamethasone 21-acetate, reference compound]", "values": [{"measurement": "Anti-inflammatory activity (*)", "setting": "granuloma formation", "result": 1}, {"measurement": "Anti-inflammatory activity (**)", "setting": "granuloma formation", "result": 1}, {"measurement": "Thymolytic activity", "setting": "[1]; rat, in vivo", "result": 1}, {"measurement": "LD50", "setting": "LD50 (acute toxicity)", "result": 259, "unit": "mg/kg"}]}, {"smiles": "CCCC(=O)OCC(=O)[C@@]12NN=C[C@@H]1C[C@H]1[C@@H]3C[C@H](F)C4=CC(=O)C=C[C@]4(C)[C@@]3(F)[C@@H](O)C[C@@]12C", "note": "[Example 16-17-Dif-Bu, 16α,17α-Isopyrazolino-1,4-pregnadiene-6α,9α-difluoro-11β,21-diol-3,20-dione-21-butyrate]", "values": [{"measurement": "% Positive", "setting": "[2]; [4]", "result": 60, "unit": "%"}, {"measurement": "Results (Positive/No. of subjects)", "setting": "[2]; [4]", "result": "3/5"}, {"measurement": "% Positive", "setting": "[2]; [5]", "result": 20, "unit": "%"}, {"measurement": "Results (Positive/No. of subjects)", "setting": "[2]; [5]", "result": "1/5"}]}, {"smiles": "CCCCC(=O)OCC(=O)[C@@]12NN=C[C@@H]1C[C@H]1[C@@H]3CCC4=CC(=O)C=C[C@]4(C)[C@@]3(F)[C@@H](O)C[C@@]12C", "note": "[Example 16-17-M-F-Va, 16α,17α-Isopyrazolino-1,4-pregnadiene-9α-fluoro-11β,21-diol-3,20-dione-21-valerate]", "values": [{"measurement": "% Positive", "setting": "[2]; [4]", "result": 100, "unit": "%"}, {"measurement": "Results (Positive/No. of subjects)", "setting": "[2]; [4]", "result": "5/5"}, {"measurement": "% Positive", "setting": "[2]; [5]", "result": 40, "unit": "%"}, {"measurement": "Results (Positive/No. of subjects)", "setting": "[2]; [5]", "result": "1/5"}]}, {"smiles": "CC1(C)O[C@@H]2C[C@H]3[C@@H]4C[C@H](F)C5=CC(=O)C=C[C@]5(C)[C@@]4(F)[C@@H](O)C[C@]3(C)[C@]2(C(=O)CO)O1", "note": "[Fluocinolone acetonide, reference compound]", "values": [{"measurement": "Anti-inflammatory activity (*)", "setting": "granuloma formation", "result": 2}, {"measurement": "Anti-inflammatory activity (**)", "setting": "granuloma formation", "result": 2}, {"measurement": "Thymolytic activity", "setting": "[1]; rat, in vivo", "result": 0.83}, {"measurement": "LD50", "setting": "LD50 (acute toxicity)", "result": 166, "unit": "mg/kg"}, {"measurement": "% Positive", "setting": "[2]; [4]", "result": 100, "unit": "%"}, {"measurement": "Results (Positive/No. of subjects)", "setting": "[2]; [4]", "result": "5/5"}, {"measurement": "% Positive", "setting": "[2]; [5]", "result": 60, "unit": "%"}, {"measurement": "Results (Positive/No. of subjects)", "setting": "[2]; [5]", "result": "3/5"}]}, {"smiles": "CC(=O)OCC(=O)[C@@]12N=NC[C@@H]1C[C@H]1[C@@H]3C[C@H](F)C4=CC(=O)C=C[C@]4(C)[C@@]3(F)[C@@H](O)C[C@@]12C", "note": "[Pyr Dif-AC, 16α,17α-Pyrazolino-1,4-pregnadiene-6α,9α-difluoro-11β,21-diol-3,20-dione 21-acetate]", "values": [{"measurement": "Anti-inflammatory activity (*)", "setting": "granuloma formation", "result": "> 10"}, {"measurement": "Anti-inflammatory activity (**)", "setting": "granuloma formation", "result": "> 20"}, {"measurement": "Thymolytic activity", "setting": "[1]; [3]", "result": 0.52}, {"measurement": "LD50", "setting": "LD50 (acute toxicity)", "result": 439, "unit": "mg/kg"}]}, {"smiles": "CC(=O)OCC(=O)[C@@]12N=NC[C@@H]1C[C@H]1[C@@H]3CCC4=CC(=O)C=C[C@]4(C)[C@@]3(F)[C@@H](O)C[C@@]12C", "note": "[Pyr-F-Ac, 16α,17α-Pyrazolino-1,4-pregnadiene-9α-fluoro-11β,21-diol-3,20-dione-21-acetate]", "values": [{"measurement": "Anti-inflammatory activity (*)", "setting": "granuloma formation", "result": "≥ 10"}, {"measurement": "Anti-inflammatory activity (**)", "setting": "granuloma formation", "result": "≥ 20"}, {"measurement": "Thymolytic activity", "setting": "[1]; [3]", "result": 0.14}, {"measurement": "LD50", "setting": "LD50 (acute toxicity)", "result": 721, "unit": "mg/kg"}]}, {"smiles": "CC1(C)O[C@@H]2C[C@H]3[C@@H]4CCC5=CC(=O)C=C[C@]5(C)[C@@]4(F)[C@@H](O)C[C@]3(C)[C@]2(C(=O)CO)O1", "note": "[Triamcinolone acetonide, reference compound]", "values": [{"measurement": "% Positive", "setting": "[2]; [6]", "result": 100, "unit": "%"}, {"measurement": "Results (Positive/No. of subjects)", "setting": "[2]; [6]", "result": "5/5"}, {"measurement": "% Positive", "setting": "[2]; [7]", "result": 100, "unit": "%"}, {"measurement": "Results (Positive/No. of subjects)", "setting": "[2]; [7]", "result": "5/5"}, {"measurement": "% Positive", "setting": "[2]; [8]", "result": 60, "unit": "%"}, {"measurement": "Results (Positive/No. of subjects)", "setting": "[2]; [8]", "result": "3/5"}, {"measurement": "% Positive", "setting": "[2]; [9]", "result": 40, "unit": "%"}, {"measurement": "Results (Positive/No. of subjects)", "setting": "[2]; [9]", "result": "2/5"}]}]}
